Legend:
human ETA receptor = target: T1, human ETA receptor (Homo sapiens, UniProt P25101); test: ETA receptor binding test ([125I]-ET1, CHO cell membranes); settings: cloned human ETA receptor, 25 pM [125I]-ET1, 25° C., 30 min
T1 construct: expressed in transfected cells; host or cells: CHO cells (membrane preparation)
T1 sequence (P25101 21-427): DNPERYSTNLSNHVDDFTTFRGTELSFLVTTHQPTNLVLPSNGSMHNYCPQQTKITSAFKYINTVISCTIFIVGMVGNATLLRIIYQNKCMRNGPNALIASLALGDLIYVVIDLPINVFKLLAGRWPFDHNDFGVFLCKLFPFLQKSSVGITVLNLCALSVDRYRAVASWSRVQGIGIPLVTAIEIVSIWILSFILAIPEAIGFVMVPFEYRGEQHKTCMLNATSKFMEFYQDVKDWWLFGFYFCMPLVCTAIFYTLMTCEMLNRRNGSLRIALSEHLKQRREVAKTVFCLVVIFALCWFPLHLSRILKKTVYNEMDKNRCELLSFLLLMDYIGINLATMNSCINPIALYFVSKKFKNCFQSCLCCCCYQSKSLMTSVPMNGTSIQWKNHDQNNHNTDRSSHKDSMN
Method: (§1) For binding studies, cloned human ETA or ETB receptor-expressing CHO cells were employed.
(§2) The ETA or ETB receptor-expressing CHO cells were proliferated in DMEM NUT MIX F12 medium (Gibco, No. 21331-020) using 10% fetal calf serum (PAA Laboratories GmbH, Linz, No. A15-022), 1 mM glutamine (Gibco No. 25030-024), 100 U/ml of penicillin and 100 μg/ml of streptomycin (Gibco, Sigma No P-0781). After 48 hours, the cells were washed with PBS and incubated at 37° C. for 5 minutes with 0.05% trypsin-containing PBS. Neutralization with medium was then carried out and the cells were collected by centrifugation at 300×g.
(§3) For the membrane preparation, the cells were adjusted to a concentration of 10^8 cells/ml of buffer (50 mM tris·HCL buffer, pH 7.4) and then disintegrated by means of ultrasound Branson Sonifier 250, 40-70 seconds/constant/output [sic] 20).
(§4) For the ETA and ETB receptor binding test, the membranes were suspended in incubation buffer (50 mM tris HCl, pH 7.4 with 5 mM MnCl2, […] of bacitracin and 0.2% BSA) in a concentration of 50 μg of protein per test batch and incubated at 25° C. with 25 pM [125I]-ET1 (ETA receptor test) or 25 pM [125I]-ET3 (ETB receptor test) in the presence or absence of test substance. The nonspecific binding was determined with 10^−7 M ET1. After 30 min, the free and the bound -radioligand were separated by filtration through GF/B glass fiber filters (Whatman, England) on a Skatron cell collector (Skatron, Lier, Norway) and the filters were washed with ice-cold tris HCl buffer, pH 7.4 with 0.2% BSA.
(§5) The radioactivity collected on the filters was quantified using a Packard 2200 CA liquid scintillation counter.
(§6) According to the binding test described above, receptor binding data were measured for the compounds shown below.

human ETB receptor = target: T2, human ETB receptor (Homo sapiens, UniProt P24530); test: ETB receptor binding test ([125I]-ET3, CHO cell membranes); settings: cloned human ETB receptor, 25 pM [125I]-ET3, 25° C., 30 min
T2 construct: expressed in transfected cells; host or cells: CHO cells (membrane preparation)
T2 sequence (P24530 27-442): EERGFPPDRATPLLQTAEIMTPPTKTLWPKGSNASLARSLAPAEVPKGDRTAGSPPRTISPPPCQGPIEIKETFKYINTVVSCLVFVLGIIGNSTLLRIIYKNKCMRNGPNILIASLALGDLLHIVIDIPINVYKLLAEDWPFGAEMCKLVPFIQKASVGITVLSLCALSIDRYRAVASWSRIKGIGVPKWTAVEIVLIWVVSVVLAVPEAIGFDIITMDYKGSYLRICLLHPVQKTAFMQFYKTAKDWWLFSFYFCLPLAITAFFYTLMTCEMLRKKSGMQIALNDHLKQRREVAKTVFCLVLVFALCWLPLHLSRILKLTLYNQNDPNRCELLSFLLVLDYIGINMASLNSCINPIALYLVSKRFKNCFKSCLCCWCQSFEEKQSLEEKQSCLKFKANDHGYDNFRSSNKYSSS
Method: as §1, §2, §3, §4, §5, §6

Structure (SMILES)	Ki (human ETA receptor)	Ki (human ETB receptor)
COC(c1ccccc1)(c1ccccc1)[C@H](Oc1nc(C)c(C)o1)C(=O)O [Compound I-4, (S)-2-(4,5-Dimethyloxazol-2-yloxy)-3-methoxy-3,3-diphenyl-propionic Acid]	29 nM	3100 nM
COC(c1ccccc1)(c1ccccc1)[C@H](Oc1nc(C)c(C)s1)C(=O)O [Compound I-1, (S)-2-(4,5-Dimethylthiazol-2-yloxy)-3-methoxy-3,3-diphenyl-propionic Acid]	13 nM	650 nM

Now from value to compound:

Ki (human ETA receptor)	Ki (human ETB receptor)	Structure (SMILES)
900 nM	> 7100 nM	COC(c1ccccc1)(c1ccccc1)[C@H](Oc1nc2ccccc2s1)C(=O)O [Compound I-6, (S)-2-(Benzothiazol-2-yloxy)-3-methoxy-3,3-diphenylpropionic Acid]
215 nM	485 nM	COc1ccc(CCOC(c2ccccc2)(c2ccccc2)C(Oc2nc(C)c(C)o2)C(=O)O)cc1OC (stereo not drawn) [Compound I-15, 2-(4,5-Dimethyloxazol-2-yloxy)-3-(2-(3,4-dimethoxyphenyl)-ethoxy)-3,3-diphenylpropionic Acid]
145 nM	210 nM	COc1ccc(CCOC(c2ccccc2)(c2ccccc2)C(Oc2nc(C)c(C)s2)C(=O)O)cc1OC (stereo not drawn) [Compound I-13, 2-(4,5-Dimethylthiazol-2-yloxy)-3-(2-(3,4-dimethoxyphenyl)-ethoxy)-3,3-diphenylpropionic Acid]
50 nM	> 700 nM	COC(c1ccccc1)(c1ccccc1)[C@H](Oc1nc2c(s1)CCC2)C(=O)O [Compound I-5, (S)-2-(4,5-Cyclopentenothiazol-2-yloxy)-3-methoxy-3,3-diphenyl-propionic Acid]

Source: patent publication US6358983B1, “Heterocyclically substituted α-hydroxycarboxylic acid derivatives, method for producing the same and their use as endothelin receptor antagonists” (Abbott Laboratories, priority 1997, dated 2002)
